According to US10689377B2 (Mirati Therapeutics, Inc., priority 2017, dated 2020):

The molecules below were run against KRas G12C (Homo sapiens, UniProt P01116, G12C) (assay: Cellular inhibition of KRas G12C measured by Phospho-ERK in NCI-H358 cells). Conditions: pERK(Thr202/Tyr204) normalized with GAPDH, NCI-H358 cells, 3 hours; read-out: IC50.
Assay type: cell-based
Summary of the method: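 Readout is pERK(Thr202/Tyr204) immunofluorescence normalized to GAPDH, expressed as percent of DMSO control and fitted with a 4-parameter curve for IC50. Attached NCI-H358 cells received compound for 3 hours in 0.5% DMSO, followed by fixation and methanol permeabilization.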

Chain of KRas G12C (P01116 1-188 isoform P01116-2 G12C): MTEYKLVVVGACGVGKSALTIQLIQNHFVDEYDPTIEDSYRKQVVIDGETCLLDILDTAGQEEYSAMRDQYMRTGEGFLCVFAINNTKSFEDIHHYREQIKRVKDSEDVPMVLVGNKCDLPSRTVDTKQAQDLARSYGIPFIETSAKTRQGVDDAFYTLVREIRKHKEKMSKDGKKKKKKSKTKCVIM

| Structure (SMILES) | IC50 [µM] |
| --- | --- |
| Cc1cccc2cccc(N3CCc4c(nc(OCCC(=O)N(C)C)nc4N4CCN(C(=O)/C=C/CN(C)C)[C@@H](CC#N)C4)C3)c12 [Example 463, (S,E)-3-((4-(3-(cyanomethyl)-4-(4-(dimethylamino)but-2-enoyl)piperazin-1-yl)-7-(8-methylnaphthalen-1-yl)-5,6,7,8-tetrahydropyrido[3,4-d]pyrimidin-2-yl)oxy)-N,N-dimethylpropanamide] | 0.0001 to 1 |
| C=CC(=O)N1CCN(c2nc(OC[C@@H]3CCCN3CC(=O)N(C)C)nc3c2CCN(c2cccc4ccccc24)C3)C[C@@H]1CC#N [Example 402, 2-((S)-2-(((4-((S)-4-acryloyl-3-(cyanomethyl)piperazin-1-yl)-7-(naphthalen-1-yl)-5,6,7,8-tetrahydropyrido[3,4-d]pyrimidin-2-yl)oxy)methyl)pyrrolidin-1-yl)-N,N-dimethylacetamide] | 0.0001 to 1 |
| Cc1cccc2cccc(N3CCc4c(nc(OC[C@@H]5CCCN5C)nc4N4CCN(C(=O)/C=C/CN(C)C)[C@@H](CC#N)C4)C3)c12 [Example 459, 2-((S)-1-((E)-4-(dimethylamino)but-2-enoyl)-4-(7-(8-methylnaphthalen-1-yl)-2-(((S)-1-methylpyrrolidin-2-yl)methoxy)-5,6,7,8-tetrahydropyrido[3,4-d]pyrimidin-4-yl)piperazin-2-yl)acetonitrile] | 0.0001 to 1 |
| C=CC(=O)N1CCN(c2nc(OCCCN3C[C@@H]4C[C@H]3CO4)nc3c2CCN(c2cccc4cccc(Cl)c24)C3)C[C@@H]1CC#N [Example 365, 2-[(2S)-4-[7-(8-chloro-1-naphthyl)-2-[3-[(1S,4S)-2-oxa-5-azabicyclo[2.2.1]heptan-5-yl]propoxy]-6,8-dihydro-5H-pyrido[3,4-d]pyrimidin-4-yl]-1-prop-2-enoyl-piperazin-2-yl]acetonitrile] | 0.0001 to 1 |
| C=C(F)C(=O)N1CCN(c2nc(OC[C@@H]3[C@H](O)CC(=O)N3C)nc3c2CCN(c2cccc4cccc(C)c24)C3)C[C@@H]1CC#N [Example 570, 2-[(2S)-1-(2-Fluoroprop-2-enoyl)-4-[2-[[(2R,3R)-3-hydroxy-1-methyl-5-oxo-pyrrolidin-2-yl]methoxy]-7-(8-methyl-1-naphthyl)-6,8-dihydro-5H-pyrido[3,4-d]pyrimidin-4-yl]piperazin-2-yl]acetonitrile] | > 1 |
| C=CC(=O)N1CCN(c2nc(OC[C@@H]3CCCN3C)nc3c2CCN(c2cccc(Cl)c2C(F)(F)F)C3)CC1CC#N (stereo partly drawn) [Example 414, 2-(1-acryloyl-4-(7-(3-chloro-2-(trifluoromethyl)phenyl)-2-(((S)-1-methylpyrrolidin-2-yl)methoxy)-5,6,7,8-tetrahydropyrido[3,4-d]pyrimidin-4-yl)piperazin-2-yl)acetonitrile] | 0.0001 to 1 |
| Cc1cc2[nH]ncc2c(N2CCc3c(nc(OC[C@@H]4CC(F)(F)CN4C)nc3N3CCN(C(=O)/C=C/CF)[C@@H](CC#N)C3)C2)c1C [Example 614, 2-((S)-4-(2-(((S)-4,4-difluoro-1-methylpyrrolidin-2-yl)methoxy)-7-(5,6-dimethyl-1H-indazol-4-yl)-5,6,7,8-tetrahydropyrido[3,4-d]pyrimidin-4-yl)-1-((E)-4-fluorobut-2-enoyl)piperazin-2-yl)acetonitrile] | 0.0001 to 1 |
| C=CC(=O)N1CCN(c2nc(OC[C@@H]3C[C@@H](OC)CN3C)nc3c2CCN(c2cccc4ccccc24)C3)C[C@@H]1CC#N [Example 327, 2-((S)-1-acryloyl-4-(2-(((2S,4R)-4-methoxy-1-methylpyrrolidin-2-yl)methoxy)-7-(naphthalen-1-yl)-5,6,7,8-tetrahydropyrido[3,4-d]pyrimidin-4-yl)piperazin-2-yl)acetonitrile] | 0.0001 to 1 |
| C=CC(=O)N1CCN(c2nc(OC[C@@H]3CCCN3C)nc3c2CCN(c2cccc4cccc(CC)c24)C3)C[C@@H]1CC#N [Example 360, 2-[(2S)-4-[7-(8-ethyl-1-naphthyl)-2-[[(2S)-1-methylpyrrolidin-2-yl]methoxy]-6,8-dihydro-5H-pyrido[3,4-d]pyrimidin-4-yl]-1-prop-2-enoyl-piperazin-2-yl]acetonitrile] | 0.0001 to 1 |
| C=CC(=O)N1CCN(c2nc(OC[C@@H]3CCCN3CC)nc3c2CCN(c2cccc4ccccc24)C3)CC1CC#N (stereo partly drawn) [Example 233, 2-(1-acryloyl-4-(2-(((S)-1-ethylpyrrolidin-2-yl)methoxy)-7-(naphthalen-1-yl)-5,6,7,8-tetrahydropyrido[3,4-d]pyrimidin-4-yl)piperazin-2-yl)acetonitrile] | 0.0001 to 1 |
| C=C(F)C(=O)N1CCN(c2nc(OC[C@@H]3CCCN3C)nc3c2CCN(c2cncc4cc(F)ccc24)C3)C[C@@H]1CC#N [Example 618, 2-[(2S)-4-[7-(7-fluoro-4-isoquinolyl)-2-[[(2S)-1-methylpyrrolidin-2-yl]methoxy]-6,8-dihydro-5H-pyrido[3,4-d]pyrimidin-4-yl]-1-(2-fluoroprop-2-enoyl)piperazin-2-yl]acetonitrile] | > 1 |
| C=CC(=O)N1CCN(c2nc(OC[C@@H]3CCN(C)C3)nc3c2CCN(c2cccc4ccccc24)C3)C[C@@H]1CC#N [Example 410, 2-((S)-1-acryloyl-4-(2-(((R)-1-methylpyrrolidin-3-yl)methoxy)-7-(naphthalen-1-yl)-5,6,7,8-tetrahydropyrido[3,4-d]pyrimidin-4-yl)piperazin-2-yl)acetonitrile] | 0.0001 to 1 |
| C=CC(=O)N1CCN(c2nc(OC[C@@H]3CCCN3C)nc3c2CCN(c2ccccc2CC(F)(F)F)C3)CC1CC#N (stereo partly drawn) [Example 240, 2-(1-acryloyl-4-(2-(((S)-1-methylpyrrolidin-2-yl)methoxy)-7-(2-(2,2,2-trifluoroethyl)phenyl)-5,6,7,8-tetrahydropyrido[3,4-d]pyrimidin-4-yl)piperazin-2-yl)acetonitrile] | > 1 |

Second part, the molecule after the results:

| IC50 [µM] | Structure (SMILES) |
| --- | --- |
| > 1 | C=CC(=O)N1CCN(c2nc(OCCCN3CCOCC3)nc3c2CCN(c2cc(O)cc(C)c2C)C3)CC1 [Example 213, 1-(4-(7-(5-hydroxy-2,3-dimethylphenyl)-2-(3-morpholinopropoxy)-5,6,7,8-tetrahydropyrido[3,4-d]pyrimidin-4-yl)piperazin-1-yl)prop-2-en-1-one] |
| > 1 | C=CC(=O)N1CCN(c2nc(OC[C@@H]3CCNC3)nc3c2CCN(c2cc(O)cc4ccccc24)C3)CC1 [Example 146, 1-[4-[7-(3-hydroxy-1-naphthyl)-2-[[(3R)-pyrrolidin-3-yl]methoxy]-6,8-dihydro-5H-pyrido[3,4-d]pyrimidin-4-yl]piperazin-1-yl]prop-2-en-1-one] |
| 0.0001 to 1 | C=CC(=O)N1CCN(c2nc(OC[C@@H]3CCCN3C)nc3c2CCN(c2cccc4ccc(Cl)cc24)C3)CC1CC#N (stereo partly drawn) [Example 286, 2-(1-acryloyl-4-(7-(7-chloronaphthalen-1-yl)-2-(((S)-1-methylpyrrolidin-2-yl)methoxy)-5,6,7,8-tetrahydropyrido[3,4-d]pyrimidin-4-yl)piperazin-2-yl)acetonitrile] |
| 0.0001 to 1 | C=CC(=O)N1CCN(c2nc(OCCN3CCCCC3)nc3c2CCN(c2cc(O)cc4ccccc24)C3)CC1 [Example 52, 1-[4-[7-(3-hydroxy-1-naphthyl)-2-[2-(1-piperidyl)ethoxy]-6,8-dihydro-5H-pyrido[3,4-d]pyrimidin-4-yl]piperazin-1-yl]prop-2-en-1-one] |
| 0.0001 to 1 | C=CC(=O)N1CCN(c2nc(OC[C@@H]3CCCN3C)nc3c2CCN(c2ccccc2C(F)(F)F)C3)C[C@@H]1CC#N [Example 237, 2-((S)-1-acryloyl-4-(2-(((S)-1-methylpyrrolidin-2-yl)methoxy)-7-(2-(trifluoromethyl)phenyl)-5,6,7,8-tetrahydropyrido [3,4-d]pyrimidin-4-yl)piperazin-2-yl)acetonitrile 2,2,2-trifluoroacetate] |
| 0.0001 to 1 | C=CC(=O)N1CCN(c2nc(OC[C@@H]3CCN(C)C3)nc3c2CCN(c2cc(O)cc4ccccc24)C3)C[C@@H]1CC#N [Example 350, 2-((S)-1-acryloyl-4-(7-(3-hydroxynaphthalen-1-yl)-2-(((R)-1-methylpyrrolidin-3-yl)methoxy)-5,6,7,8-tetrahydropyrido[3,4-d]pyrimidin-4-yl)piperazin-2-yl)acetonitrile] |
| 0.0001 to 1 | C=CC(=O)N1CCN(c2nc(OCCN3CCCC[C@H]3C)nc3c2CCN(c2cc(O)cc4ccccc24)C3)CC1 [Example 97, (R)-1-(4-(7-(3-hydroxynaphthalen-1-yl)-2-(2-(2-methylpiperidin-1-yl)ethoxy)-5,6,7,8-tetrahydropyrido[3,4-d]pyrimidin-4-yl)piperazin-1-yl)prop-2-en-1-one] |
| > 1 | C=CC(=O)N1CCN(c2nc(N3CCOCC3)nc3c2CCN(c2cc(O)cc4ccccc24)C3)CC1 [Example 118, 1-(4-(7-(3-hydroxynaphthalen-1-yl)-2-morpholino-5,6,7,8-tetrahydropyrido[3,4-d]pyrimidin-4-yl)piperazin-1-yl)prop-2-en-1-one] |
| 0.0001 to 1 | C=CC(=O)N1CCN(c2nc(OCCN(CC)CC)nc3c2CCN(c2cc(O)cc4ccccc24)C3)CC1 [Example 102] |
| > 1 | C=CC(=O)N1CCN(c2nc(OC[C@@H]3CCCN3C)nc3c2CCN(c2cccc4ccccc24)C3)[C@@H](C#N)C1 [Example 465, (R)-4-acryloyl-1-(2-(((S)-1-methylpyrrolidin-2-yl)methoxy)-7-(naphthalen-1-yl)-5,6,7,8-tetrahydropyrido[3,4-d]pyrimidin-4-yl)piperazine-2-carbonitrile] |
| > 1 | C=CC(=O)N1CCN(c2ncnc3c2CCN(c2cc(O)ccc2F)C3)CC1 [Example 5, 1-(4-(7-(2-fluoro-5-hydroxyphenyl)-5,6,7,8-tetrahydropyrido[3,4-d]pyrimidin-4-yl)piperazin-1-yl)prop-2-en-1-one] |
| 0.0001 to 1 | C=CC(=O)N1CCN(c2nc(OCC(CO)N(C)C)nc3c2CCN(c2cc(O)cc4ccccc24)C3)CC1 (stereo not shown) [Example 55, 1-(4-(2-(2-(dimethylamino)-3-hydroxypropoxy)-7-(3-hydroxynaphthalen-1-yl)-5,6,7,8-tetrahydropyrido[3,4-d]pyrimidin-4-yl)piperazin-1-yl)prop-2-en-1-one] |
